Reference: patent US11053204B2, “Pyrimidinyloxy benzene derivatives as herbicides” (FMC Corporation, priority 2015, dated 2021)

Columns and labels:
Format in all cases: in vivo
kochia (Kochia scoparia) [1] = assay: Test A preemergence, visual injury rating
In short: (§1)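 Pre- and postemergence greenhouse screen. Soil: loam + sand. Spray carrier: solvent mixture, non-phytotoxic, with surfactant. Post timing at 1–2 leaves, height 2–10 cm. Readout: visual injury on a 0–100 scale roughly 10 days after application, untreated plants as reference.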

[2] = system: pigweed (Amaranthus retroflexus); assay: Test A preemergence, visual injury rating; details: Amaranthus retroflexus, pre-emergence, 240 h, 0 to 100 scale (0 no effect, 100 complete control), read-out: Pigweed plant response rating
In short: as §1

[3] = system: Italian ryegrass (Lolium multiflorum); assay: Test A postemergence, visual injury rating
In short: as §1

[4] = system: barnyardgrass (Echinochloa crus-galli); assay: Test A postemergence, visual injury rating; details: 0 is no effect, 100 is complete control; for Barnyardgrass plant response rating: 0 to 100 scale, approximately 10 days
In short: as §1

[5] = system: blackgrass (Alopecurus myosuroides); assay: Test A postemergence, visual injury rating
In short: as §1

corn (Zea mays) = assay: Test A postemergence, visual injury rating
In short: as §1

[6] = system: galium (catchweed bedstraw, Galium aparine); assay: Test A postemergence, visual injury rating
In short: as §1

[7] = system: giant foxtail (Setaria faberii); assay: Test A postemergence, visual injury rating
In short: as §1

kochia (Kochia scoparia) [8] = assay: Test A postemergence, visual injury rating
In short: as §1

[9] = system: pigweed (Amaranthus retroflexus); assay: Test A postemergence, visual injury rating
In short: as §1

[10] = system: ragweed (common ragweed, Ambrosia elatior); assay: Test A postemergence, visual injury rating
In short: as §1

[11] = system: wheat (Triticum aestivum); assay: Test A postemergence, visual injury rating
In short: as §1

[12] = system: chickweed (common chickweed, Stellaria media); assay: Test C postemergence, plant response rating
From the text: (§2) Seeds of plant species selected from blackgrass (Alopecurus myosuroides), ryegrass, Italian (Italian ryegrass, Lolium multiflorum), wheat (winter wheat, Triticum aestivum), galium (catchweed bedstraw, Galium aparine), corn (Zea mays), crabgrass, large (large crabgrass, Digitaria sanguinalis), foxtail, giant (giant foxtail, Setaria faberii), johnsongrass (Sorghum halepense), lambsquarters (Chenopodium album), morningglory (Ipomoea coccinea), nutsedge, yellow (yellow nutsedge, Cyperus esculentus), pigweed (Amaranthus retroflexus), ragweed (common ragweed, Ambrosia elatior), soybean (Glycine max), barnyardgrass (Echinochloa crus-galli), oilseed rape (Brassica napus), pigweed, palmer (palmer pigweed, Amaranthus palmeri), waterhemp (common waterhemp, Amaranthus rudis), velvetleaf (Abutilon theophrasti), kochia (Kochia scoparia), surinam grass (Brachiaria decumbens), nightshade (eastern black nightshade, Solanum ptycanthum), wild poinsettia (Euphorbia heterophylla), windgrass (Apera spica-venti), and oat, wild (wild oat Avena fatua), were planted into a blend of loam soil and sand or a silt loam soil and treated preemergence with test chemicals formulated in a non-phytotoxic solvent mixture which included a surfactant.
(§3) At the same time, plants selected from these crop and weed species and also chickweed (common chickweed, Stellaria media), buckwheat, wild (wild buckwheat, Polygonum convolvulus), wild mustard (Sinapis arvensis), field poppy (Papaver rhoeas), field violet (Viola arvensis), geranium, cutleaf (cutleaf geranium, Geranium dissectum), Canada thistle (Cirsium arvense), and speedwell (bird's-eye speedwell, Veronica persica), were planted in pots containing Sunshine Redi-Earth® planting medium comprising spaghnum peat moss, vermiculite, starter nutrients and dolomitic limestone and treated with postemergence applications of test chemicals formulated in the same manner. Plants ranged in height from 2 to 18 cm (1- to 4-leaf stage) for postemergence treatments. Treated plants and controls were maintained in a greenhouse for 13 to 15 d, after which time all species were compared to controls and visually evaluated. Plant response ratings, summarized in Table C, are based on a scale of 0 to 100 where 0 is no effect and 100 is complete control. A dash (-) response means no test result.

kochia (Kochia scoparia) [13] = assay: Test C postemergence, plant response rating
From the text: as §2, §3

[14] = system: morningglory (Ipomoea coccinea); assay: Test C postemergence, plant response rating
From the text: as §2, §3

[15] = system: barnyardgrass (Echinochloa crus-galli); assay: Test B flooded paddy test, plant response rating; details: 250 g ai/ha; Flood; scale of 0 to 100 where 0 is no effect and 100 is complete control; 13 to 15 days
In short: (§4)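 Flooded 3 cm over soil; compound into paddy water; depth kept constant. Greenhouse 13–15 d.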

[16] = system: ducksalad (Heteranthera limosa); assay: Test B flooded paddy test, plant response rating; details: 250 g ai/ha; Flood; scale of 0 to 100 where 0 is no effect and 100 is complete control; 13 to 15 days
In short: as §4

rice (Oryza sativa) = assay: Test B flooded paddy test, plant response rating; details: 250 g ai/ha; Flood; scale of 0 to 100 where 0 is no effect and 100 is complete control; 13 to 15 days
In short: as §4

[17] = system: sedge, umbrella (small-flower umbrella sedge, Cyperus difformis); assay: Test B flooded paddy test, plant response rating; details: 250 g ai/ha; Flood; scale of 0 to 100 where 0 is no effect and 100 is complete control; 13 to 15 days
In short: as §4

[18] = 125 g ai/ha, 0 to 100 scale, 0 is no effect, 100 is complete control, approximately 10 days
[19] = 31 g ai/ha, 0 to 100 scale (0 no effect, 100 complete control)
[20] = 62 g ai/ha, scale 0 to 100 (0 no effect, 100 complete control)
[21] = 125 g ai/ha, scale 0 to 100 (0 no effect, 100 complete control)

N#Cc1cccc(Oc2ncc(Cl)cn2)c1CCCCC(F)(F)F [Compound 73, 3-[(5-chloro-2-pyrimidinyl)oxy]-2-(5,5,5-trifluoropentyl)benzonitrile]
pest or weed control at 125 g/ha (kochia (Kochia scoparia) [1]; Bassia scoparia, pre-emergence, 240 h, 125 g ai/ha, 0 to 100 scale (0 no effect, 100 complete control), read-out: Kochia plant response rating): 100% | pest or weed control at 500 g/ha (kochia (Kochia scoparia) [1]; Bassia scoparia, pre-emergence, 240 h, 500 g ai/ha, 0 to 100 scale (0 no effect, 100 complete control), read-out: Kochia plant response rating): 100% | pest or weed control at 125 g/ha ([2]; 125 g ai/ha): 100% | pest or weed control at 500 g/ha ([2]; 500 g ai/ha): 100% | Ryegrass, Italian plant response rating [3, 18]: 80 | pest or weed control at 500 g/ha ([3]; Lolium multiflorum, post-emergence, 240 h, 500 g ai/ha, 0 is no effect, 100 is complete control, read-out: Ryegrass, Italian plant response rating (0 to 100 scale)): 100% | pest or weed control at 125 g/ha ([4]; Echinochloa crus-galli, post-emergence, 240 h, 125 g ai/ha, read-out: Barnyardgrass plant response rating (0 to 100 scale)): 90% | pest or weed control at 500 g/ha ([4]; Echinochloa crus-galli, post-emergence, 240 h, 500 g ai/ha, read-out: Barnyardgrass plant response rating (0 to 100 scale)): 100% | pest or weed control at 125 g/ha ([5]; Alopecurus myosuroides, post-emergence, 240 h, 125 g ai/ha, 0 is no effect, 100 is complete control, read-out: Blackgrass plant response rating (0 to 100 scale)): 50% | pest or weed control at 500 g/ha ([5]; Alopecurus myosuroides, post-emergence, 240 h, 500 g ai/ha, 0 is no effect, 100 is complete control, read-out: Blackgrass plant response rating (0 to 100 scale)): 100% | plant injury at 125 g/ha (corn (Zea mays); Zea mays, post-emergence, 240 h, 125 g ai/ha, 0 is no effect, 100 is complete control, read-out: Corn plant response rating (0 to 100 scale)): 30% | plant injury at 500 g/ha (corn (Zea mays); Zea mays, post-emergence, 240 h, 500 g ai/ha, 0 is no effect, 100 is complete control, read-out: Corn plant response rating (0 to 100 scale)): 60% | pest or weed control at 125 g/ha ([6]; Galium, post-emergence, 240 h, 125 g ai/ha, 0 is no effect, 100 is complete control, read-out: Galium plant response rating (0 to 100 scale)): 100% | pest or weed control at 500 g/ha ([6]; Galium, post-emergence, 240 h, 500 g ai/ha, 0 is no effect, 100 is complete control, read-out: Galium plant response rating (0 to 100 scale)): 100% | pest or weed control at 125 g/ha ([7]; Setaria faberi, post-emergence, 240 h, 125 g ai/ha, 0 is no effect, 100 is complete control, read-out: Foxtail, Giant plant response rating (0 to 100 scale)): 100% | pest or weed control at 500 g/ha ([7]; Setaria faberi, post-emergence, 240 h, 500 g ai/ha, 0 is no effect, 100 is complete control, read-out: Foxtail, Giant plant response rating (0 to 100 scale)): 100% | Kochia plant response rating (kochia (Kochia scoparia) [8]; [18]): 100 | pest or weed control at 500 g/ha (kochia (Kochia scoparia) [8]; Bassia scoparia, post-emergence, 240 h, 500 g ai/ha, 0 is no effect, 100 is complete control, read-out: Kochia plant response rating (0 to 100 scale)): 100% | Pigweed plant response rating [9, 18]: 100 | pest or weed control at 500 g/ha ([9]; Amaranthus retroflexus, post-emergence, 240 h, 500 g ai/ha, 0 is no effect, 100 is complete control, read-out: Pigweed plant response rating (0 to 100 scale)): 100% | Ragweed plant response rating [10, 18]: 20 | pest or weed control at 500 g/ha ([10]; Ambrosia artemisiifolia, post-emergence, 240 h, 500 g ai/ha, 0 is no effect, 100 is complete control, read-out: Ragweed plant response rating (0 to 100 scale)): 30% | Wheat plant response rating [11, 18]: 20 | plant injury at 500 g/ha ([11]; Triticum aestivum, post-emergence, 240 h, 500 g ai/ha, 0 is no effect, 100 is complete control, read-out: Wheat plant response rating (0 to 100 scale)): 90% | pest or weed control at 16 g/ha ([12]; Stellaria media, post-emergence, 16 g ai/ha, scale 0 to 100): 80% | pest or weed control at 31 g/ha ([12]; Stellaria media, post-emergence, 31 g ai/ha, scale 0 to 100): 80% | pest or weed control at 62 g/ha ([12]; Stellaria media, post-emergence, 62 g ai/ha, scale 0 to 100 (0 no effect, 100 complete control)): 90% | pest or weed control at 125 g/ha ([12]; Stellaria media, post-emergence, 125 g ai/ha, scale 0 to 100 (0 no effect, 100 complete control)): 85% | pest or weed control at 16 g/ha (kochia (Kochia scoparia) [13]; Bassia scoparia, post-emergence, 16 g ai/ha, scale 0 to 100): 98% | pest or weed control at 31 g/ha (kochia (Kochia scoparia) [13]; Bassia scoparia, post-emergence, 31 g ai/ha, scale 0 to 100): 100% | pest or weed control at 62 g/ha (kochia (Kochia scoparia) [13]; Bassia scoparia, post-emergence, 62 g ai/ha, scale 0 to 100 (0 no effect, 100 complete control)): 100% | pest or weed control at 125 g/ha (kochia (Kochia scoparia) [13]; Bassia scoparia, post-emergence, 125 g ai/ha, scale 0 to 100 (0 no effect, 100 complete control)): 100% | pest or weed control at 16 g/ha ([14]; Ipomoea, post-emergence, 16 g ai/ha, scale 0 to 100): 70% | pest or weed control at 31 g/ha ([14]; Ipomoea, post-emergence, 31 g ai/ha, scale 0 to 100): 75% | pest or weed control at 62 g/ha ([14]; Ipomoea, post-emergence, 62 g ai/ha, scale 0 to 100 (0 no effect, 100 complete control)): 85% | pest or weed control at 125 g/ha ([14]; Ipomoea, post-emergence, 125 g ai/ha, scale 0 to 100 (0 no effect, 100 complete control)): 75%

O=C(CCCC(F)(F)F)c1c(Cl)cccc1Oc1ncc(Cl)cn1 [Compound 143]
Plant response rating, Kochia (kochia (Kochia scoparia) [1]; 31 g ai/ha, 0 to 100 scale, 0 no effect, 100 complete control): 100 | Plant response rating, Kochia (kochia (Kochia scoparia) [1]; 125 g ai/ha, 0 to 100 scale (0 no effect, 100 complete control)): 100 | Ryegrass, Italian plant response rating [3, 19]: 20 | Ryegrass, Italian plant response rating [3, 18]: 80 | Barnyardgrass plant response rating ([4]; 31 g ai/ha): 20 | Barnyardgrass plant response rating ([4]; 125 g ai/ha): 70 | Blackgrass plant response rating [5, 19]: 30 | Blackgrass plant response rating [5, 18]: 80 | Corn plant response rating (corn (Zea mays); [19]): 10 | Corn plant response rating (corn (Zea mays); [18]): 30 | Galium plant response rating [6, 19]: 90 | Galium plant response rating [6, 18]: 100 | Foxtail, Giant plant response rating [7, 19]: 30 | Foxtail, Giant plant response rating [7, 18]: 70 | Kochia plant response rating (kochia (Kochia scoparia) [8]; [19]): 90 | Kochia plant response rating (kochia (Kochia scoparia) [8]; [18]): 100 | Pigweed plant response rating [9, 19]: 100 | Pigweed plant response rating [9, 18]: 100 | Ragweed plant response rating [10, 19]: 20 | Ragweed plant response rating [10, 18]: 50 | Wheat plant response rating [11, 19]: 10 | Wheat plant response rating [11, 18]: 20 | Plant response rating, Barnyardgrass [15]: 50 | Plant response rating, Ducksalad [16]: 90 | Plant response rating, Rice (rice (Oryza sativa)): 40 | Plant response rating, Sedge, Umbrella [17]: 90 | Plant response rating, Chickweed ([12]; 16 g ai/ha, scale of 0 to 100): 80 | Plant response rating, Chickweed ([12]; 31 g ai/ha, scale 0 to 100): 80 | Chickweed plant response rating [12, 20]: 85 | Chickweed plant response rating [12, 21]: 100 | Plant response rating, Kochia (kochia (Kochia scoparia) [13]; 16 g ai/ha, scale of 0 to 100): 98 | Plant response rating, Kochia (kochia (Kochia scoparia) [13]; 31 g ai/ha, scale 0 to 100): 100 | Kochia plant response rating (kochia (Kochia scoparia) [13]; [20]): 100 | Kochia plant response rating (kochia (Kochia scoparia) [13]; [21]): 100 | Plant response rating, Morningglory ([14]; 16 g ai/ha, scale of 0 to 100): 15 | Plant response rating, Morningglory ([14]; 31 g ai/ha, scale 0 to 100): 70 | Morningglory plant response rating [14, 20]: 50 | Morningglory plant response rating [14, 21]: 65
